melting point: 110 °C
Structure (SMILES): COCC(C)Nc1cc(-c2ccnc(Nc3cccc(Cl)c3)c2)ccn1 (stereo not shown) [Compound A1.10, N*2′*-(3-Chloro-phenyl)-N*2*-(2-methoxy-1-methyl-ethyl)-[4,4′]bipyridinyl-2,2′-diamine]

From patent US8389442B2, “N-phenyl-′(4-pyridyl)-azinyl!amine derivatives as plant protection agents” (Syngenta Crop Protection LLC, priority 2003, dated 2013)
